Reference: article PMC7277541, “Antimicrobial and Antifungal Activities of Terpene-Derived Palladium Complexes” (Antibiotics, 2020)
≈ marks a conversion by molar mass, not a printed value.

Experiment: Cytotoxicity assay (resazurin)
Type: cell-based, human
Conditions: human, HEK293 cells (ATCC CRL-1573), HEK293, 20 h incubation, read-out: CC50 (concentration of 50% cytotoxicity)
Protocol: Screening against bacteria and yeasts for antimicrobial activity and toxicity against mammalian cells was performed in duplicate (n = 2). […] HEK293 cells were counted manually in a Neubauer hemocytometer and added to compound-containing plates (384-well plates, tissue culture treated (TC); Corning CLS3712) giving a final density of 5000 cells/well in a total volume of 50 μL, using Dulbecco's Modified Eagle Medium (DMEM; Life Technologies 11995-073) with 10% Fetal Bovine Serum (FBS; GE SH30084.03). […] Sigma R7017) and after further incubation for 3 h at 37 °C in 5% CO2. Media only was used as negative control and cells without inhibitors as positive growth control. CC50 (concentration at 50% cytotoxicity) values were calculated by curve fitting the inhibition values vs. log(concentration) using a sigmoidal dose-response function, with variable fitting values for bottom, top and slope. Tamoxifen (Sigma Aldrich, Australia T5648) was used as positive inhibitor control on each plate. Selectivity indices (SI) were calculated by dividing the CC50 value (μg/mL) by the MIC value (μg/mL) for a given bacterial or fungal strain.

SMILES: CC/C(=C(\c1ccccc1)c1ccc(OCCN(C)C)cc1)c1ccccc1 [tamoxifen, Tamoxifen, reference compound]
- CC50 at 20 h: 9 µg/mL (≈ 24.2 µM)
